The values below are quoted from earlier work in patent US20040048261A1, “Invertebrate choline transporter nucleic acids, polypeptides and uses thereof” (priority 2002, published 2004).

Data set [1] addresses low-affinity, sodium-independent system for choline uptake. The conditions noted are these: synaptosome studies, high choline concentrations, read-out: inhibition constant (Ki).
The target of data set [2] is high-affinity, sodium-dependent system for choline uptake. The conditions noted are these: synaptosome studies, low choline concentrations.

SMILES strings stand for the structures.

Broadly, the Ki is a dissociation constant, usually derived from enzyme kinetics or from competition with a known ligand. Turning to `C[N+]1(C)CCOC(O)(c2ccc(-c3ccc(C4(O)C[N+](C)(C)CCO4)cc3)cc2)C1` (centres unmarked) [HC-3, hemicholinium-3], the inhibition constant Ki was about 50 µM in data set [1] and 0.01 to 0.1 µM in data set [2].
